pKi: −log10 of the molar value.
Tests used:
Assay type in all cases: biochemical
calpain-I = target: T1, calpain-I (Homo sapiens, UniProt P07384); assay: Calpain I enzyme inhibition in vitro (kinetic fluorescence assay)
T1 construct: calpain-I—isolated from human erythrocytes; purchased Calbiochem 208713; host or cells: human erythrocytes (tissue isolate)
T1 sequence (P07384 2-714 limits assumed): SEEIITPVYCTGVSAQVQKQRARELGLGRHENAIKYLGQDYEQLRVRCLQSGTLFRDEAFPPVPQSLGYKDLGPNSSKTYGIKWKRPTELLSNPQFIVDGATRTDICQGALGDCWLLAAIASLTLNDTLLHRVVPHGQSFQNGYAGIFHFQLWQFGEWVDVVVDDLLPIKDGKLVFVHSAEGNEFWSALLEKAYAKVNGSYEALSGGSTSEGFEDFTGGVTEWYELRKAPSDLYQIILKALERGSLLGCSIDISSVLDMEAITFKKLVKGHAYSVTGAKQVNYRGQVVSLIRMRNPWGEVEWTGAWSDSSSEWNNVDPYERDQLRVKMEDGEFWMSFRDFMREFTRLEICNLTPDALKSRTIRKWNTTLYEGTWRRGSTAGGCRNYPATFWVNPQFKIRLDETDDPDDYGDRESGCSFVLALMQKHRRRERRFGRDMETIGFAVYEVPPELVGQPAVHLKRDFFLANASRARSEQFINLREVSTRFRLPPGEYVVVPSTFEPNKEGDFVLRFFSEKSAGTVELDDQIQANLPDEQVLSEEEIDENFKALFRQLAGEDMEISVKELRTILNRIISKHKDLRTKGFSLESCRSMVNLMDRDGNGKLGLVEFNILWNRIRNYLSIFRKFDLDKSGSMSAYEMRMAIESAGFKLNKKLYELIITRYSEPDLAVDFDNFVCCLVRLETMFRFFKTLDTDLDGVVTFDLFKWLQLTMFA
T1 sequence (P04632 1-268 partner): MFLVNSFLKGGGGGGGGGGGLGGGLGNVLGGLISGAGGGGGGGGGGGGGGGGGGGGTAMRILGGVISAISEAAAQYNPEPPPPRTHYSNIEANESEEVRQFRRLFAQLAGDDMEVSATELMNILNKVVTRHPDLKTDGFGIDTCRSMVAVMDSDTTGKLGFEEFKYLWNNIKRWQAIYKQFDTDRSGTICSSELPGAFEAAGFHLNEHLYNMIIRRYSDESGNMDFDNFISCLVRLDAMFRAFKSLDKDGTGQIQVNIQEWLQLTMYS
Method: Testing for blockade of the corresponding enzymic activities was carried out by means of kinetic fluorescence assays (excitation 390 nm, emission 460 nm).
Apparent Ki values were calculated from the experimentally determined IC50 values by the Cheng-Prussoff relation assuming a reversible competitive enzyme inhibition. The Km values of the substrates used under the assay conditions indicated above were: 90 μM (Z-Phe-Arg-AMC, cathepsin B), 10 μM (Z-Gly-Pro-Arg-AMC, cathepsin K), 2 μM (Z-Phe-Arg-AMC, cathepsin L), and 30 μM (Z-Val-Val-Arg-AMC, cathepsin S).
The indicated Ki values are averages of the inhibition constants calculated on the basis of 2 to 4 independent dose-effect plots.
• 1. Calpain I: • 20 nM calpain-I—isolated from human erythrocytes (Calbiochem #208713), 100 μM Suc-Leu-Tyr-AMC (Bachem #1-1355) as substrate in buffer with 62 mM imidazole, 0.3 mM CaCl2, 0.10% CHAPS, 0.05% BSA, 1 mM DTT at pH 7.3 and room temperature. • 2. Cathepsin B: • 0.25 nM cathepsin B—isolated from human liver (Calbiochem #219362), 100 μM Z-Phe-Arg-AMC (Bachem #1-1160) as substrate 50 mM MES, 2 mM EDTA, 0.05% Brij 35, 2.5 mM L-cysteine, pH 6.0, room temperature. • 3. […]

cathepsin S = target: T2, cathepsin S (Homo sapiens, UniProt P25774); assay: Cathepsin S enzyme inhibition in vitro (kinetic fluorescence assay); details: Ki(cathepsin S)/Ki(calpain) ratio
T2 construct: purchased Calbiochem 219343; host or cells: E. coli
T2 sequence (P25774 115-331): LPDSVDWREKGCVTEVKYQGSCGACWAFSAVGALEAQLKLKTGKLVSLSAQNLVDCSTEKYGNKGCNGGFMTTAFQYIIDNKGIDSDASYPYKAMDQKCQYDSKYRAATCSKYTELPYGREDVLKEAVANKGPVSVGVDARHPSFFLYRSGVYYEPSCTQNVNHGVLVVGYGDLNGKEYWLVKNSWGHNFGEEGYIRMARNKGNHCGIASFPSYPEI
Method in brief: (§1)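 Kinetic fluorescence (ex 390/em 460 nm), RT. Calpain-I: 20 nM erythrocyte-derived, 100 μM Suc-Leu-Tyr-AMC, imidazole/CaCl2, pH 7.3. Cathepsins, pH 6.0 MES/EDTA/cysteine: B 0.25 nM liver, 100 μM Z-Phe-Arg-AMC; L 1 nM liver, 2 μM Z-Phe-Arg-AMC; S 0.5 nM recombinant, 20 μM Z-Val-Val-Arg-AMC. Cheng-Prusoff Ki, mean of 2–4 curves.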

cathepsin B = target: T3, cathepsin B (Homo sapiens, UniProt P07858); assay: Cathepsin B enzyme inhibition in vitro (kinetic fluorescence assay); details: Ki(cathepsin B)/Ki(calpain) ratio
T3 construct: cathepsin B—isolated from human liver; purchased Calbiochem 219362; host or cells: human liver (tissue isolate)
Method in brief: as §1

cathepsin K = target: T4, cathepsin K (Homo sapiens, UniProt P43235); assay: Cathepsin K enzyme inhibition in vitro (kinetic fluorescence assay); details: Ki(cathepsin K)/Ki(calpain) ratio
T4 construct: purchased Calbiochem 342001; host or cells: E. coli
T4 sequence (P43235 115-329): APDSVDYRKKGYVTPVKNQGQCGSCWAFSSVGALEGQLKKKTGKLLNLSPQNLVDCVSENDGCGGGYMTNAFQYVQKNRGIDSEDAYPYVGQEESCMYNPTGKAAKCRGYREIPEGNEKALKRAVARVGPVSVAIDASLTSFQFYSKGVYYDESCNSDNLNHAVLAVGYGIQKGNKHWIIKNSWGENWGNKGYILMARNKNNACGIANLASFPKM

cathepsin L = target: T5, cathepsin L (Homo sapiens, UniProt P07711); assay: Cathepsin L enzyme inhibition in vitro (kinetic fluorescence assay); details: Ki(cathepsin L)/Ki(calpain) ratio
T5 construct: cathepsin L—isolated from human liver; purchased Calbiochem 219402; host or cells: human liver (tissue isolate)
T5 sequence (P07711 114-333): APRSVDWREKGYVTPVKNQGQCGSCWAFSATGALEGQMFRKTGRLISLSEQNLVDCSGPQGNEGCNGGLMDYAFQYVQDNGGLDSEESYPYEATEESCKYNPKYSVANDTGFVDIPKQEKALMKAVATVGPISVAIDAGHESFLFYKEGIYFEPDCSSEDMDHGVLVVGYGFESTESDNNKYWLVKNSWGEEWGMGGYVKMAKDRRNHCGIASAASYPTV
Method in brief: as §1

In the case of `Cl.NC(=O)C(=O)C(Cc1ccccc1)NC(=O)c1cccnc1-n1cnc(-c2ccc(CN3CCOCC3)cc2)c1` (stereo not shown) [Example 26, N-(3-Amino-1-benzyl-2,3-dioxopropyl)-2-{4-[4-(morpholin-4-ylmethyl)phenyl]-1H-imidazol-1-yl}nicotinamide hydrochloride], the pKi (calpain-I) was > 7.40 and the “Sel cat. S” value (cathepsin S) was “++ (++ means a Ki(cathepsin S)/Ki(calpain) ratio of ≧100)”.
With `COc1cc(F)ccc1-c1ccn(-c2ncccc2C(=O)NC(Cc2ccccc2)C(=O)C(N)=O)n1` (stereo not shown) [Example 125, N-[3-Amino-2,3-dioxo-1-(phenylmethyl)propyl]-2-{3-[4-fluoro-2-(methyloxy)phenyl]-1H-pyrazol-1-yl}pyridine-3-carboxamide] the “Sel cat. B” value (cathepsin B) was “++ (++ means a Ki(cathepsin B)/Ki(calpain) ratio of ≧30)”, the “Sel cat. K” value (cathepsin K) was “++ (++ means a Ki(cathepsin K)/Ki(calpain) ratio of ≧30)” and the “Sel cat. L” value (cathepsin L) was “++ (++ means a Ki(cathepsin L)/Ki(calpain) ratio of ≧50)”. The “Sel cat. S” value (cathepsin S) was “++ (++ means a Ki(cathepsin S)/Ki(calpain) ratio of ≧100)”.
In the case of `COc1c(C)cc(C)cc1-c1ccn(-c2ncccc2C(=O)NC(Cc2ccccc2)C(=O)C(N)=O)n1` (stereo not shown) [Example 121, N-[3-Amino-2,3-dioxo-1-(phenylmethyl)propyl]-2-{3-[3,5-dimethyl-2-(methyloxy)phenyl]-1H-pyrazol-1-yl}pyridine-3-carboxamide], the “Sel cat. B” value (cathepsin B) was “++ (++ means a Ki(cathepsin B)/Ki(calpain) ratio of ≧30)”, the “Sel cat. K” value (cathepsin K) was “++ (++ means a Ki(cathepsin K)/Ki(calpain) ratio of ≧30)” and the “Sel cat. L” value (cathepsin L) was “++ (++ means a Ki(cathepsin L)/Ki(calpain) ratio of ≧50)”. The “Sel cat. S” value (cathepsin S) was “++ (++ means a Ki(cathepsin S)/Ki(calpain) ratio of ≧100)”.
`NC(=O)C(=O)C(Cc1ccccc1)NC(=O)c1cccnc1-n1ccc(-c2c(F)cccc2F)n1` (stereo not shown) [Example 85, N-[3-Amino-2,3-dioxo-1-(phenylmethyl)propyl]-2-[3-(2,6-difluorophenyl)-1H-pyrazol-1-yl]pyridine-3-carboxamide] was tested, and the “Sel cat. B” value (cathepsin B) was “+ (+ means 10≦Ki(cathepsin B)/Ki(calpain)<30)”, the “Sel cat. K” value (cathepsin K) was “++ (++ means a Ki(cathepsin K)/Ki(calpain) ratio of ≧30)” and the “Sel cat. L” value (cathepsin L) was “++ (++ means a Ki(cathepsin L)/Ki(calpain) ratio of ≧50)”. For the same molecule, the “Sel cat. S” value (cathepsin S) was “++ (++ means a Ki(cathepsin S)/Ki(calpain) ratio of ≧100)”.
In the case of `NC(=O)C(=O)C(Cc1ccccc1)NC(=O)c1cccnc1-n1ccc(-c2cccc3c2OCC3)n1` (stereo not shown) [Example 164, N-[3-Amino-2,3-dioxo-1-(phenylmethyl)propyl]-2-[3-(2,3-dihydro-1-benzofuran-7-yl)-1H-pyrazol-1-yl]pyridine-3-carboxamide], the “Sel cat. B” value (cathepsin B) was “+ (+ means 10≦Ki(cathepsin B)/Ki(calpain)<30)”, the “Sel cat. K” value (cathepsin K) was “++ (++ means a Ki(cathepsin K)/Ki(calpain) ratio of ≧30)” and the “Sel cat. L” value (cathepsin L) was “++ (++ means a Ki(cathepsin L)/Ki(calpain) ratio of ≧50)”. The “Sel cat. S” value (cathepsin S) was “++ (++ means a Ki(cathepsin S)/Ki(calpain) ratio of ≧100)”.
For `NC(=O)C(=O)C(Cc1ccccc1)NC(=O)c1cccnc1-n1ccc(-c2cccc3ccccc23)n1` (stereo not shown) [Example 110, N-[3-Amino-2,3-dioxo-1-(phenylmethyl)propyl]-2-(3-naphthalen-1-yl-1H-pyrazol-1-yl)pyridine-3-carboxamide], the “Sel cat. B” value (cathepsin B) was “++ (++ means a Ki(cathepsin B)/Ki(calpain) ratio of ≧30)”, the “Sel cat. K” value (cathepsin K) was “++ (++ means a Ki(cathepsin K)/Ki(calpain) ratio of ≧30)” and the “Sel cat. L” value (cathepsin L) was “++ (++ means a Ki(cathepsin L)/Ki(calpain) ratio of ≧50)”. The “Sel cat. S” value (cathepsin S) was “++ (++ means a Ki(cathepsin S)/Ki(calpain) ratio of ≧100)”.

Reference: US9139557B2, “Carboxamide compounds and their use as calpain inhibitors” (Abbott GmbH & Co. KG, priority 2006, dated 2015)
